ChEMBL document CHEMBL1156866 (J Med Chem, 2010)
Calls of active or inactive are those of the source. The calls are words filed in the database; no cut-off is given here.

Tests used:
[1] = biological target: Folate receptor beta (Homo sapiens) (UniProt P14207); test: Displacement of [3H]folic acid from human FRbeta expressed in Chinese hamster D4 cells relative to unlabeled folic acid; assay type: cell-based
[2] = biological target: Folate receptor alpha (Homo sapiens) (UniProt P15328); test: Displacement of [3H]folic acid from human FRalpha expressed in Chinese hamster RT16 cells relative to unlabeled folic acid; assay type: cell-based
[3] = biological target: T1, Reduced folate transporter (Homo sapiens) (UniProt P41440); test: Displacement of [3H]MTX from human RFC expressed in Chinese hamster PC43-10 cells at 10 uM; assay type: cell-based
T1 sequence (whole entry): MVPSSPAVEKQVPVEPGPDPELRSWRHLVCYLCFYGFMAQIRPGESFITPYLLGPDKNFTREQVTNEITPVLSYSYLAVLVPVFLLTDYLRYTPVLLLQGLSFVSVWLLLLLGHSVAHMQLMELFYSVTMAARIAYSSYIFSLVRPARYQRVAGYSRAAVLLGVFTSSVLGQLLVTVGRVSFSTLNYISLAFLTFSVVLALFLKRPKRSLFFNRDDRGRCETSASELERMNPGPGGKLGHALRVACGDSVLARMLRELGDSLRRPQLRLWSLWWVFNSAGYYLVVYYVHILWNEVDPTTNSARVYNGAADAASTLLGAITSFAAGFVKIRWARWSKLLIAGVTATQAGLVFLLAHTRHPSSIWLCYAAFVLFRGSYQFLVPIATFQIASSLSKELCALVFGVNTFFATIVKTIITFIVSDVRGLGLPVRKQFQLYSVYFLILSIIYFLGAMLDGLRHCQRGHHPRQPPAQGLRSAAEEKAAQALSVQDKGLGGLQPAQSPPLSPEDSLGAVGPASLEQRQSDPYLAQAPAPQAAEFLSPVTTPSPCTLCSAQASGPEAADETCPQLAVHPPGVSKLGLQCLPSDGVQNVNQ

R2 [4] = test: cells; conditions: Homo sapiens, R2, 96 h
cells [5] = conditions: Cricetulus griseus, 96 h
cells [6] = conditions: Cricetulus griseus, PC43-10, 96 h
cells [7] = conditions: Cricetulus griseus, RT16, 96 h
R2 [8] = test: cells; conditions: Homo sapiens, R2, 96 h; remark: listed apart in the source
IGROV-1 [9] = test: cells; conditions: Homo sapiens, IGROV-1, 96 h
KB [10] = test: cells; conditions: Homo sapiens, 96 h
IGROV-1 [11] = test: cells; conditions: Homo sapiens, IGROV-1, 96 h; remark: listed apart in the source
cells [12] = conditions: Cricetulus griseus, RT16, 96 h; remark: listed apart in the source
KB [13] = test: cells; conditions: Homo sapiens, 96 h; remark: listed apart in the source
KB [14] = test: Antitumor activity against human KB cells xenografted in folate deficient diet fed ICR SCID mouse assessed as tumor cell kill at 180 mg/kg, iv administered as Q4dx4 schedule starting from 4 days post tumor implantation; assay type: functional
KB [15] = test: Antitumor activity against human KB cells xenografted in folate deficient diet fed ICR SCID mouse assessed as tumor cell killing at 112.5 mg/kg, iv administered as Q4dx4 schedule starting from 29 days post tumor implantation; assay type: functional
cells [16] = conditions: Cricetulus griseus, D4, 96 h
KB [17] = test: Antitumor activity against human KB cells xenografted in folate deficient diet fed ICR SCID mouse assessed as tumor cell kill at 180 mg/kg, iv administered as Q4dx4 schedule starting from 29 days post tumor implantation; assay type: functional
cells [18] = conditions: Cricetulus griseus, D4, 96 h; remark: listed apart in the source
[19] = biological target: T2, Proton-coupled folate transporter (Homo sapiens, UniProt Q96NT5); test: Displacement of [3H]MTX from human PCFT expressed in Chinese hamster R2 cells at pH 5.5 by Dixon plot; assay type: cell-based
T2 sequence (Q96NT5 whole entry): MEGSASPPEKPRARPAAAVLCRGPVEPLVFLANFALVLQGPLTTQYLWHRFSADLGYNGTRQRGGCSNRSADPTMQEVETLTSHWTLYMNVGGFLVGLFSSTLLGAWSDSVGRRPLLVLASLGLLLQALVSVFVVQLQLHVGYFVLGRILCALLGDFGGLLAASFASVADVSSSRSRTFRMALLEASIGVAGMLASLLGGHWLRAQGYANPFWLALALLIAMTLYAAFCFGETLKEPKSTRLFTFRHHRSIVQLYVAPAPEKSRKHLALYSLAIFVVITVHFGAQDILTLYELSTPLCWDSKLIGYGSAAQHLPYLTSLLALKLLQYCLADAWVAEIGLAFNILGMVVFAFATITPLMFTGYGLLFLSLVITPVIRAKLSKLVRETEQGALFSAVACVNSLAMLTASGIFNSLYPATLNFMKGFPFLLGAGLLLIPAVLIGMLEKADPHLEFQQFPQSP

[20] = biological target: T2, Proton-coupled folate transporter; test: Displacement of [3H]MTX from human PCFT expressed in Chinese hamster R2 cells at pH 6.8 by Dixon plot; assay type: cell-based

Chain of Folate receptor alpha (Homo sapiens) (P15328 25-234 limits assumed): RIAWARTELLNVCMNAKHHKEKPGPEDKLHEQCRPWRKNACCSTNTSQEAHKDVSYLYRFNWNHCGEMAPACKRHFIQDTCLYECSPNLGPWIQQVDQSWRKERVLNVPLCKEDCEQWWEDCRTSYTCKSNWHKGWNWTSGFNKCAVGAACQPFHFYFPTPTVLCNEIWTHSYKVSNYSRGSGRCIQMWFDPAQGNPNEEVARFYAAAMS
Chain of Folate receptor beta (Homo sapiens) (P14207 17-230 limits assumed): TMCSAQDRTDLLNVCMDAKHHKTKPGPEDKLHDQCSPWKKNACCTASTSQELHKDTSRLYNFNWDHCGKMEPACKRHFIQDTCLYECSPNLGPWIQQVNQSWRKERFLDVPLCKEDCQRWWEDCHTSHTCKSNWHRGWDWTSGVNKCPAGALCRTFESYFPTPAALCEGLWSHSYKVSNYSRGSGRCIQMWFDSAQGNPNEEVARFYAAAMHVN

For `CN(Cc1cnc2nc(N)nc(N)c2n1)c1ccc(C(=O)N[C@@H](CCC(=O)O)C(=O)O)cc1`, the Activity [1] was “inactive” and the Activity [2] was “inactive”.
For `Nc1nc(=O)c2c([nH]1)NCC(CNc1ccc(C(=O)N[C@@H](CCC(=O)O)C(=O)O)cc1)N2C=O` (mixture of isomers), the inhibition [3] was over 50%.
For `Nc1nc(N)c2nc(CNc3ccc(C(=O)N[C@@H](CCCNC(=O)c4ccccc4C(=O)O)C(=O)O)cc3)cnc2n1` [TALOTREXIN], the IC50 (R2 [4]) was over 1000 nM, the IC50 (cells [5]) was over 1000 nM and the IC50 (cells [6]) was 1.28 nM. It also gave an IC50 (cells [7]) of 409 nM, an IC50 (R2 [8]) of over 1000 nM and an IC50 (IGROV-1 [9]) of 3.47 nM. The IC50 (KB [10]) was 5.26 nM, the IC50 (IGROV-1 [11]) was 2.47 nM and the IC50 (cells [12]) was 864 nM.
In the case of `Nc1nc2c(c(=O)[nH]1)C[C@@H](CCc1ccc(C(=O)N[C@@H](CCC(=O)O)C(=O)O)cc1)CN2`, the Activity [1] is reported as “Active”, the inhibition [3] is reported as over 50% and the Activity [2] is reported as “Active”.
`Nc1nc2[nH]c(CCCCc3ccc(C(=O)N[C@@H](CCC(=O)O)C(=O)O)s3)cc2c(=O)[nH]1` gave an IC50 (R2 [4]) of over 1000 nM, an IC50 (KB [13]) of over 1000 nM and an LCK (KB [14]) of 3.5. For the same compound, the LCK (KB [15]) was 3.8, the IC50 (cells [5]) was over 1000 nM and the IC50 (cells [16]) was over 1000 nM. For the same compound, the IC50 (cells [6]) was over 1000 nM, the Activity [3] was “inactive” and the IC50 (cells [7]) was 1.82 nM. It also gave an IC50 (R2 [8]) of 43.4 nM, an IC50 (IGROV-1 [11]) of over 1000 nM and an LCK (KB [17]) of 3.7. For the same compound, the IC50 (cells [12]) was over 1000 nM.
In the case of `Nc1nc2[nH]c(CCCCCCc3ccc(C(=O)N[C@@H](CCC(=O)O)C(=O)O)s3)cc2c(=O)[nH]1`, the IC50 (cells [18]) is reported as over 1000 nM, the IC50 (cells [5]) is reported as over 1000 nM and the IC50 (cells [16]) is reported as over 1000 nM. For the same compound, the relative binding affinity (RBA) [1] was 0.4, the Activity [3] was “inactive” and the relative binding affinity (RBA) [2] was 0.6.
`Cc1nc(=O)c2cc(CN(C)c3ccc(C(=O)N[C@@H](CCC(=O)O)C(=O)O)s3)ccc2[nH]1` gave an inhibition [3] of over 50%.
For `Nc1nc2[nH]c(CCCCCc3ccc(C(=O)N[C@@H](CCC(=O)O)C(=O)O)s3)cc2c(=O)[nH]1`, the IC50 (cells [5]) was over 1000 nM, the IC50 (cells [16]) was over 1000 nM and the relative binding affinity (RBA) [1] was 1.1. The Activity [3] was “inactive”, the IC50 (R2 [8]) was 101 nM and the relative binding affinity (RBA) [2] was 0.9. For the same compound, the Ki [19] was 100 nM and the Ki [20] was 2230 nM.
For `Nc1nc2[nH]cc(CCc3ccc(C(=O)N[C@@H](CCC(=O)O)C(=O)O)cc3)c2c(=O)[nH]1`, the Activity [1] was “inactive” and the inhibition [3] was over 50%.
